Several values for one entry are separate records, joined by “and”; a condition that tells them apart may be missing. Equal values may be shown once.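 Values below derive from 48-hour exposures of cells grown in 96-well plates, with endpoints linearly interpolated between the two concentrations bracketing the appropriate inhibition level. Abbreviation: GI50, concentration required for 50% inhibition of growth. TGI: concentration producing complete growth inhibition.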
Key:
Experiment in all cases: inhibition of tumour cell growth, NCI panel, 48 h
786-0 renal = tested on: 786-0 renal
RPMI-8226 leukemia = tested on: RPMI-8226 leukemia
HCT-15 colon = tested on: HCT-15 colon
SK-MEL-5 melanoma = tested on: SK-MEL-5 melanoma
COLO 205 colon = tested on: COLO 205 colon
SN12C renal = tested on: SN12C renal
MALME-3M melanoma = tested on: MALME-3M melanoma
SF-268 CNS = tested on: SF-268 CNS

SMILES | TGI (786-0 renal) [µM] | TGI (RPMI-8226 leukemia) [µM] | TGI (HCT-15 colon) [µM] | TGI (SK-MEL-5 melanoma) [µM] | TGI (COLO 205 colon) | TGI (SN12C renal) [µM] | TGI (MALME-3M melanoma) [µM] | TGI (SF-268 CNS) [µM] | GI50 (786-0 renal) | GI50 (RPMI-8226 leukemia) [µM] | GI50 (HCT-15 colon) | GI50 (SK-MEL-5 melanoma) | GI50 (COLO 205 colon) | GI50 (SN12C renal) | GI50 (MALME-3M melanoma) | GI50 (SF-268 CNS)
N#C/C(=C\Nc1ccccn1)C(=O)c1ccco1 | > 100 | > 100 | > 100 | > 100 | > 100 µM | > 100 | > 100 | > 100 |  |  |  |  |  |  |  | 
O=C(O)c1ccc([S-])cc1.[Au+].c1ccc(CN2[CH-]N(Cc3ccccc3)C(c3ccccc3)=C2c2ccccc2)cc1 | 1.59 | 2 | 2.55 | 1.03 | 0.824 µM | 1.3 | 0.797 |  | 0.376 µM | 0.323 | 1.04 µM | 0.281 µM | 0.269 µM | 0.305 µM | 0.249 µM | 
CC1(C)N=C(N)N=C(N)N1c1ccc(CCc2ccc(Cl)cc2S(=O)(=O)F)c(Cl)c1 | > 100 | 38.5 | > 100 | 16.3 | 24 µM | > 100 | 60.3 | 53.5 | 5.21 µM | 10.2 | 92.8 µM | 4.39 µM | 10.4 µM | 7.98 µM | 14.7 µM | 4.21 µM
O=C(/C=C/c1cccc([N+](=O)[O-])c1)c1ccc(O)c(CN2CCN(c3cc4c(cc3F)c(=O)c(C(=O)O)cn4C3CC3)CC2)c1 | 3 | 2.82 |  | 3.25 |  | 3.45 | 4.25 | 5.58 | 1.57 µM | 0.418 |  | 1.7 µM |  | 1.75 µM | 1.93 µM | 2.15 µM
Cc1cccc(Cl)c1NC(=O)c1cnc(Nc2cc(N3CCOCC3)cc(N3CCOCC3)c2)s1 |  | > 10 | > 10 | > 10 | > 8.09 µM | > 10 | > 10 | > 10 | 0.0183 µM | > 6.24 | 0.39 µM | > 8.96 µM | 0.122 µM | 0.0535 µM | > 4.82 µM | 0.0626 µM
CCN(CC)CCCC(C)Nc1c2ccc(Cl)cc2nc2cc(OC)c(OC)cc12 (centres undefined) | 5.57 | 6.66 | 3.49 | 3.21 |  | 17.8 | 3.52 | 7.03 | 1.46 µM | 2.47 | 1.2 µM | 1.81 µM |  | 3.31 µM | 1.86 µM | 1.93 µM
COc1ccc(SC2c3ccc(C)cc3Oc3nc(N)c(C#N)c(N)c32)cc1 (centres undefined) | 3.01 | 6.56 | 3.3 | 3.15 |  |  | 3.13 | 3.04 | 1.65 µM | 2.47 | 1.72 µM | 1.77 µM |  |  | 1.68 µM | 1.62 µM
COc1cc2c(cc1OC)-c1ccc3cc4c(cc3c1N(CCN(C)C)C2)OCO4 | 1.99 | 1.36 | 17.6 | 3.01 | 1.92 µM | 4.4 | 9.45 | 2.41 | 0.442 µM | 0.221 | 4.09 µM | 1.39 µM | 0.37 µM | 0.35 µM | 1.15 µM | 0.214 µM
c1ccc(Nn2c(CCCCCCCCc3nnc(COc4ccccc4)n3Nc3ccccc3)nnc2COc2ccccc2)cc1 | > 300 | > 300 | > 300 | > 300 | 8.81 µM and 77.1 µM | > 300 | > 300 | > 300 | 29 µM and 36.3 µM |  | 9.88 µM and 5.62 µM | 6.41 µM and 50 µM | 3.18 µM and 19.6 µM | 35.5 µM and 66.6 µM | 27.5 µM and 25.7 µM | 23.5 µM and 70.9 µM
CCCCOC(=O)c1ccc(NC(=O)CCl)cc1 | 3.74 |  | 3.19 | 3.04 |  | 3.36 | 3.68 | 4.05 | 2.04 µM |  | 1.43 µM | 1.55 µM |  | 1.56 µM | 1.76 µM | 1.78 µM
Clc1ccc(C(c2ccc(Cl)cc2)N2CCNCC2)cc1 | 3.17 | 4.66 | 8.79 | 3.64 | 4.28 µM | 8.52 | 3.12 | 19.7 |  |  |  |  |  |  |  | 
CN1C(=O)C(=Cc2cn(Cc3ccccc3)c3ccccc23)C(=O)N(C)C1=O | > 100 | > 100 | > 100 | > 100 | 6.67 µM | > 100 | > 100 | > 100 | 57.7 µM | 26.9 | > 95.6 µM | 25.7 µM | 0.712 µM | 54.8 µM | 42.1 µM | > 86.6 µM
Cn1c(/C=C(\C#N)c2cccc(C(F)(F)F)c2)nc2c(N3CCOCC3)nc(Cl)nc21 | 2.82 | 0.802 | 0.61 | 2.97 | 2.67 µM | 2.14 | 2.79 | 3.25 | 1.43 µM | 0.252 | 0.221 µM | 1.6 µM | 1.12 µM | 0.829 µM | 1.39 µM | 1.51 µM
CC(=O)OCc1ccc(O)c(C=O)c1 | > 100 | > 100 | > 100 | > 100 | > 100 µM | > 100 | > 100 | > 100 |  |  |  |  |  |  |  | 
COc1cc2c(cc1OC)C(CC1(O)CCCCC1)N(S(=O)(=O)c1ccc(C)cc1)CC2 (centres undefined) | > 10 | > 10 | > 10 | > 10 | > 10 µM | > 10 | > 10 | > 10 | > 10 µM | > 10 | > 10 µM | > 10 µM | > 10 µM | > 10 µM | > 10 µM | > 10 µM
O=C1c2cc(-c3ccccc3)ccc2-c2c1c1ccc([N+](=O)[O-])cc1c(=O)n2CCCBr | > 50 | > 50 | > 50 | > 50 | > 50 µM | > 50 | > 43.4 | > 50 | > 31.7 µM | > 32.8 | > 50 µM | > 50 µM | > 50 µM | > 50 µM |  | > 35.4 µM
COc1ccc2c(c1)c1nc3cc(C)c(C)cc3nc1n2CCN(C)C | 2.73 | 2.35 | 1.77 | 3.01 | 1.88 µM | 1.99 | 2.53 | 3.57 | 1.02 µM | 0.453 | 0.417 µM | 1.62 µM | 0.42 µM | 0.534 µM | 1.11 µM | 1.42 µM

Source: PubChem BioAssay (NCI)
